Consider one molecule from PMC9459060 (Journal of Ginseng Research, 2022).

The target in the assay is T1, SLC5A1 (Homo sapiens, UniProt P13866).
T1 sequence (P13866 1-664): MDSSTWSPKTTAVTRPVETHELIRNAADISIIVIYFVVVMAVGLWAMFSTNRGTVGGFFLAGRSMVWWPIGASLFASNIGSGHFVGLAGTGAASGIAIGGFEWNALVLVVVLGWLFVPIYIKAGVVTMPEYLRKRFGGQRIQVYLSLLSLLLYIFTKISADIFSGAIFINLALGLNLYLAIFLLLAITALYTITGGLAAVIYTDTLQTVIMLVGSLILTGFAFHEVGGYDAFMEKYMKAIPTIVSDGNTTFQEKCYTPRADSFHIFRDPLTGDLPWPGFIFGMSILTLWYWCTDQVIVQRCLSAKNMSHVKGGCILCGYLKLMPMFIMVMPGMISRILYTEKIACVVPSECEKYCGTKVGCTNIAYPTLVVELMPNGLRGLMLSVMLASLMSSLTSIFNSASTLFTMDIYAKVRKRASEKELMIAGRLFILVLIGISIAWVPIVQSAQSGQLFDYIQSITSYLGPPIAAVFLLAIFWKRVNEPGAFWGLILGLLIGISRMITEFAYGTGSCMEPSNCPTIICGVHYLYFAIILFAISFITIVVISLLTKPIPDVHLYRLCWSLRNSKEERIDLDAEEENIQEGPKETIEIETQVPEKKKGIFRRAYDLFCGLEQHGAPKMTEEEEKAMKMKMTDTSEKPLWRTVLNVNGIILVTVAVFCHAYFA
The assay can be described thus: SPR. In kind it is binding.

In turn, `CC(C)=CCC[C@](C)(O[C@@H]1O[C@H](CO)[C@@H](O)[C@H](O)[C@H]1O)[C@H]1CC[C@]2(C)[C@@H]1[C@H](O)C[C@@H]1[C@@]3(C)CC[C@H](O[C@@H]4O[C@H](CO)[C@@H](O)[C@H](O)[C@H]4O[C@@H]4O[C@H](CO)[C@@H](O)[C@H](O)[C@H]4O)C(C)(C)[C@@H]3CC[C@]12C` [ginsenoside Rd] registered a Kd of 680 nM.
